Patent EP1101821A1, “NOVEL PROTEIN AND ITS DNA” (Takeda Chemical Industries, Ltd., priority 1998, dated 2000)

Target: recombinant human lung-derived phosphodiesterase V (Homo sapiens, UniProt O76074)
Assay: Inhibitor screening system: [3H]cGMP SPA phosphodiesterase enzyme assay
Description: A 96-well microplate (OPTI Plate, Packard) received 10 µL of a buffer solution [0.5M Tris-HCl (pH7.5), 83 mM MgCl2, 17 mM EGTA], 10 µL of the recombinant human lung-derived phosphodiesterase V obtained in Example 3 (0.025 mg/ml), 65 µL of an ultrapure water, 5 µL of an inhibitor sample and 10 µL of [^3H]cGMP, and reacted at 30°C for 30 minutes. After completion of the reaction, 50 µL of a SPA beads solution [18 mg/ml Yttrium silicate beads, 18 mM ZnSO4] was added and allowed to stand at room temperature for about 20 minutes, and then subjected to a scintillation counting (Topcount, Packard).

IC50: 2.29 nM
Compound: Cc1c2c(c(-c3ccc(F)cc3)c3c4c(ccc13)OCO4)C(=O)NC2=O [Formula 1]
